The values that follow come from patent publication US7202265B2, “Indolinone combinatorial libraries and related products and methods for the treatment of disease” (Sugen, Inc., priority 1997, dated 2007).

Molecules are shown by their SMILES.

T1 sequence (P35918 20-1345): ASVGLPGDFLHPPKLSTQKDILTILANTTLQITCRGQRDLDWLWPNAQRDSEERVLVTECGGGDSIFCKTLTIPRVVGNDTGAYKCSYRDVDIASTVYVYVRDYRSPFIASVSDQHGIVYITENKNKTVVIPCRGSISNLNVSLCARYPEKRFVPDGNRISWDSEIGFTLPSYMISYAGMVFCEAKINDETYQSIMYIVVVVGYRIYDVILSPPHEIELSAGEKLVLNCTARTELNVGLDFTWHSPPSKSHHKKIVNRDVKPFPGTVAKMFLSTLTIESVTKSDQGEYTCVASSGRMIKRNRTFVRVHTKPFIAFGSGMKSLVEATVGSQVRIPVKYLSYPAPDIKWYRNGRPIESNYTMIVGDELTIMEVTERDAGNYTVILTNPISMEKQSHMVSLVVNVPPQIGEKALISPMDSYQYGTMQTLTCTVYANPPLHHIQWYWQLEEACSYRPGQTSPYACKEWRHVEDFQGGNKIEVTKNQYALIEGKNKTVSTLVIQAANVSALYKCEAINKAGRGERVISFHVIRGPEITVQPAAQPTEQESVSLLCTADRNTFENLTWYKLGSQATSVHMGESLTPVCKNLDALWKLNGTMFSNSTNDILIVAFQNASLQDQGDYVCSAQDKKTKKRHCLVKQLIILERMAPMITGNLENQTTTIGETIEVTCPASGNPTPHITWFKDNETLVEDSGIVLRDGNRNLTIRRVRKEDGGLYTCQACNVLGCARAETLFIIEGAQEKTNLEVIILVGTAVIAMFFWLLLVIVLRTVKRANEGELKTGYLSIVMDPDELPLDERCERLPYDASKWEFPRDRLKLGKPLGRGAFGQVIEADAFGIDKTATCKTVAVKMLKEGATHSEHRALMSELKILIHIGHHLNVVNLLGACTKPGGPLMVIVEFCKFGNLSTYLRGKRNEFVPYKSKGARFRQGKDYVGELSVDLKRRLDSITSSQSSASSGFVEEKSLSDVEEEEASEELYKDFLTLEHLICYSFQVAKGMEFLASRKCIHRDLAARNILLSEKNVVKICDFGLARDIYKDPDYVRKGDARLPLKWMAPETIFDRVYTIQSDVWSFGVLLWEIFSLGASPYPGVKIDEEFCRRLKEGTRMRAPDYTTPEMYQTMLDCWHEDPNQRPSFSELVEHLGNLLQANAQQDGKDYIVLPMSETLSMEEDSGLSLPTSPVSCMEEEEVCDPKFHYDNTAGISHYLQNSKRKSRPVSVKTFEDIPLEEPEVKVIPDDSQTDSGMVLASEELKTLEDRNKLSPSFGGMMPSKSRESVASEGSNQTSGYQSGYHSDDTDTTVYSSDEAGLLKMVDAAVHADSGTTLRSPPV

In one test the test system is human MET. The test is described as follows: MET biochemical kinase assay. Also on record: concentration or dose not given beside the values.
Conditions: not given
A digest of the protocol:
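MET captured from cell lysates onto plates coated with goat anti-rabbit Fc plus rabbit polyclonal anti-MET cytoplasmic-domain antibody; after washing, compounds added with kinase buffer containing ATP and divalent metal ions. Receptor tyrosine phosphorylation detected by HRP-conjugated anti-phosphotyrosine antibody, TMB colorimetric read-out.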
As for `O=C1Nc2ccc(S(=O)(=O)Nc3ccc(C(F)(F)F)cc3)cc2C1=Cc1c[nH]c(=O)[nH]c1=O` [10731/E08], the “Met Kinase % Inhibition” value was determined as 59.0%. Still for that read-out and setting: with `COc1ccc2[nH]cc(C=C3C(=O)Nc4ccc(S(=O)(=O)Nc5ccc(C(F)(F)F)cc5)cc43)c2c1` [10731/E09] the figure was 27.0%. Same read-out and setting: with `C=C(C)C1CC=C(C=C2C(=O)Nc3ccc(S(=O)(=O)N4CCOCC4)cc32)CC1` (stereo not shown) [10731/F04] the figure was 17.0%; with `COc1ccc2[nH]cc(C=C3C(=O)Nc4ccc(CCCl)cc43)c2c1` [10731/G09], 4.4%. Same read-out and setting: with `CC(C)(C)c1cc(C=C2C(=O)Nc3c(Br)cc(Br)cc32)ccc1OCc1ccccc1` [10732/A06] the figure was 5.7%; with `O=C1Nc2ccc(I)cc2C1=CC(c1cccs1)C(F)(F)F` (stereo not shown) [10732/B02], 78.0%. Take `COc1c(C(C)C)cc(C=C2C(=O)Nc3ccc(Br)c(C)c32)cc1C(C)C` [10732/C03]: the “Met Kinase % Inhibition” value is listed as 14.0%. On the same count and under the same terms, with `Cc1c(Br)ccc2c1C(=Cc1cc(Cl)c(OCc3ccccc3)c(C(C)(C)C)c1)C(=O)N2` [10732/C10] the figure was 43.0%. Take `COc1c(C(C)C)cc(C=C2C(=O)Nc3ccc(S(=O)(=O)Nc4ccc(C(F)(F)F)cc4)cc32)cc1C(C)C` [10732/E03]: the “Met Kinase % Inhibition” value is 3.9%. With `CC(C)c1cc(C=C2C(=O)Nc3ccc(S(=O)(=O)Nc4ccc(C(F)(F)F)cc4)cc32)cc(C(C)C)c1Oc1ccccc1` [10732/E04], the “Met Kinase % Inhibition” value worked out at 8.2%. The same measure, in the same setting: the same measure for `COc1ccc(C=C2C(=O)Nc3ccc(S(=O)(=O)Nc4ccc(C(F)(F)F)cc4)cc32)cc1C(C)(C)C` [10732/E05]: 2.2%; for `CC(C)(C)c1cc(C=C2C(=O)Nc3ccc(S(=O)(=O)Nc4ccc(C(F)(F)F)cc4)cc32)ccc1OCc1ccccc1` [10732/E06]: −2.1%.

`CC(C)(C)c1cc(C=C2C(=O)Nc3ccc(S(=O)(=O)Nc4ccc(C(F)(F)F)cc4)cc32)cc(Cl)c1OCc1ccccc1` [10732/E10]: the “Met Kinase % Inhibition” value was determined as 1.6%. On the same count and under the same terms, the same measure for `COc1c(I)cc(C=C2C(=O)Nc3ccc(CCCl)cc32)cc1C(C)(C)C` [10732/G11]: 63.0%; for `COc1c(C(C)(C)C)cc(C=C2C(=O)Nc3c(Br)cc(Br)cc32)cc1C(C)(C)C` [10733/A04]: 24.0%. Regarding `COc1c(C)cc(C=C2C(=O)Nc3ccc(Br)c(C)c32)cc1C` [10733/C06], the “Met Kinase % Inhibition” value turned out to be 4.1%. On the same count and under the same terms, with `CNS(=O)(=O)c1ccc2c(c1)C(=Cc1cc(C)c(OC)c(C)c1)C(=O)N2` [10733/D06] the figure was −19.4%; with `CNS(=O)(=O)c1ccc2c(c1)C(=Cc1cc(C)c(OCc3ccccc3)c(C)c1)C(=O)N2` [10733/D07], −6.8%; with `CNS(=O)(=O)c1ccc2c(c1)C(=Cc1cc(Br)cc(OC)c1O)C(=O)N2` [10733/D08], 80.0%. In the case of `CC(C)(C)c1cc(C=C2C(=O)Nc3ccc(S(=O)(=O)Nc4ccc(C(F)(F)F)cc4)cc32)cc(C(C)(C)C)c1OCc1ccccc1` [10733/E05], the “Met Kinase % Inhibition” value is 2.9%. `Cc1cc(C=C2C(=O)Nc3ccc(S(=O)(=O)Nc4ccc(C(F)(F)F)cc4)cc32)cc(C)c1OCc1ccccc1` [10733/E07]: the “Met Kinase % Inhibition” value is on record as −10.1%. Same read-out and setting: the same measure for `Cc1cc(C=C2C(=O)Nc3ccc(S(=O)(=O)N4CCOCC4)cc32)cc(C)c1OCc1ccccc1` [10733/F07]: −16.4%; for `CC(C)(C)c1cc(C=C2C(=O)Nc3ccc(CCCl)cc32)cc(C(C)(C)C)c1OCc1ccccc1` [10733/G05]: 1.8%; for `COc1c(C)cc(C=C2C(=O)Nc3ccc(CCCl)cc32)cc1C` [10733/G06]: 0.8%. Same read-out and setting: with `Cc1cc(C=C2C(=O)Nc3ccc(CCCl)cc32)cc(C)c1OCc1ccccc1` [10733/G07] the figure was 8.5%; with `COc1cc(Br)cc(C=C2C(=O)Nc3ccc(CCCl)cc32)c1O` [10733/G08], 79.0%; with `O=C1Nc2c(Br)cc(Br)cc2C1=Cc1cc(Cl)ccc1O` [10734/A04], 68.0%. On the same count and under the same terms, the same measure for `CCOc1cccc(C=C2C(=O)Nc3ccc(S(=O)(=O)NC)cc32)c1O` [10734/D02]: 46.0%; for `CCN(CC)c1ccc(C=C2C(=O)Nc3ccc(S(=O)(=O)NC)cc32)c(O)c1` [10734/D05]: 55.0%. Take `CNS(=O)(=O)c1ccc2c(c1)C(=Cc1cc(Br)cc(Br)c1O)C(=O)N2` [10734/D07]: the “Met Kinase % Inhibition” value turned out to be 92.0%. Still for that read-out and setting: with `CNS(=O)(=O)c1ccc2c(c1)C(=Cc1ccc(O)c(Br)c1)C(=O)N2` [10734/D09] the figure was 88.0%; with `CCOc1cccc(C=C2C(=O)Nc3ccc(S(=O)(=O)N4CCOCC4)cc32)c1O` [10734/F02], 55.0%.

The next test addresses T1, FLK-1 receptor (Mus musculus, UniProt P35918).
T1 construct: expressed in transfected cells; host or cells: NIH3T3 C7#3 (FLK-1/NIH3T3)
Nature of the test: FLK-1 ELISA (catalytic activity of the FLK-1 receptor in FLK-1/NIH3T3 cells). The following applies: Table 2; read-out: FLK Kinase IC50. It counts as cell-based.
Protocol: An enzyme linked immunosorbent assay (ELISA) was conducted to measure the catalytic activity of the FLK-1 receptor and more specifically, the inhibition or activation of indolinone compounds on the catalytic activity of the FLK-1 receptor. Specifically, the following assay was conducted to measure catalytic activity of the FLK-1 receptor in FLK-1/NIH3T3 cells.
An ELISA assay was conducted to measure the kinase activity of the FLK-1 receptor and more specifically, the inhibition or activation of protein tyrosine kinase activity on the FLK-1 receptor. Specifically, the following assay was conducted to measure kinase activity of the FLK-1 receptor in FLK-1/NIH3T3 cells.
Materials. The following reagents and supplies were used: • a. […] PBS (Gibco Catalog No. 450–1300EB); • d. […] EDTA (0.5 M (pH 7.0) as a 100× stock); • h. Sodium ortho vanadate (0.5 M as a 100× stock); • i. Sodium pyro phosphate (0.2M as a 100× stock); • j. […] NIH3T3 C7#3 Cells (FLK-1 expressing cells); • l. […] FBS, Gibco (catalog no. 16000-028); • n.
Protocol. The following protocol was used for conducting the assay:
1. Coat Corning 96-well elisa plates with 1.0 μg per well Cappel Anti-rabbit IgG antibody in 0.1M Na2CO3 pH 9.6. Bring final volume to 150 μl per well. Coat plates overnight at 4° C. Plates can be kept up to two weeks when stored at 4° C.
2. Grow cells in Growth media(DMEM, supplemental with 2.0 mM L-Glutamine, 10% FBS) in suitable culture dishes until confluent at 37° C., 5% CO2.
4. Grow cells at least one day at 37° C., 5% CO2.
5. Wash cells with D-PBS 1×.
6. Add 200 μl/well of starvation media (DMEM, 2.0 mM 1-Glutamine, 0.1% FBS). Incubate overnight at 37° C., 5% CO2.
7. Dilute Compounds/Extracts 1:20 in polypropylene 96 well plates using starvation media. Dilute dimethylsulfoxide 1:20 for use in control wells.
8. Remove starvation media from 96 well cell culture plates and add 162 μl of fresh starvation media to each well.
9. Add 18 μl of 1:20 diluted Compound/Extract dilution (from step 7) to each well plus the 1:20 dimethylsulfoxide dilution to the control wells (+/−VEGF), for a final dilution of 1:200 after cell stimulation. Final dimethylsulfoxide is 0.5%. Incubate the plate at 37° C., 5% CO2 for two hours.
10. Remove unbound antibody from ELISA plates by inverting plate to remove liquid. […] Pat the plate on a paper towel to remove excess liquid and bubbles.
Incubate plate thirty minutes while shaking on a microtiter plate shaker.
Wash plate 3 times as described in step 10.
Incubate plate for. thirty minutes while shaking.
`Cn1cc(/C=C2\C(=O)Nc3ccccc32)c2ccccc21`: the IC50 came out at 0.7 µM. The same measure, in the same setting: with `Cc1cccc2c1/C(=C/c1cn(C)c3ccccc13)C(=O)N2` the figure was 7.7 µM; with `Cn1cc(/C=C2\C(=O)Nc3ccc(N)cc32)c2ccccc21`, 2.5 µM.

On to `Cn1cc(/C=C2\C(=O)Nc3ccc(F)cc32)c2ccccc21`, for which the IC50 was determined as 14 µM. Still for that read-out and setting: the same measure for `COc1ccc2[nH]cc(/C=C3\C(=O)Nc4ccccc43)c2c1`: 13 µM.

The test is the same for the next values; noted with them: Table 6; read-out: FLK Kinase IC50.
With `Nc1ccc2c(c1)/C(=C/c1cc3c([nH]1)CCCC3)C(=O)N2`, the IC50 was determined as 1.2 µM.

As to `O=C1Nc2ccccc2/C1=C/c1cc2c([nH]1)CCCC2`, the half-maximal inhibitory concentration (IC50) turned out to be 1.4 µM. As to `O=C1Nc2ccc(Cl)cc2/C1=C/c1cc2c([nH]1)CCCC2`, the half-maximal inhibitory concentration (IC50) turned out to be 5 µM.

The test is the same for the next values; noted with them: Table 8.
Turning to `Cc1cc(C)c(/C=C2\C(=O)Nc3ccc(C(=O)O)cc32)[nH]1`, the “Activity EC200” value is on record as “ActivityEC200 = 2.8 μm”. On the same count and under the same terms, the same measure for `CCc1cc(CC)c(/C=C2\C(=O)Nc3ccc(C(=O)O)cc32)[nH]1`: “ActivityEC200 = 2.8 μm”.

As to `CC(C)c1cc(C(C)C)c(/C=C2\C(=O)Nc3ccc(C(=O)O)cc32)[nH]1`, the “Activity EC200” value is “ActivityEC200 = 10 μm”. The same measure, in the same setting: with `Cc1cc(C)c(/C=C2\C(=O)Nc3ccc(CCC(=O)O)cc32)[nH]1` the entry was “ActivityEC200 = 32 μm”; with `Cc1ccc(/C=C2\C(=O)Nc3ccc(CCC(=O)O)cc32)s1`, “ActivityEC200 > 100 μm”; with `Cc1ccc(/C=C2\C(=O)Nc3ccc(C(=O)O)cc32)s1`, “ActivityEC200 = 46 μm”.

Staying with this test, now noted: Table 10; read-out: FLK Kinase IC50.
For the molecule `O=C1Nc2ccc(Cl)cc2/C1=C/c1ccc[nH]1`, the half-inhibitory concentration (IC50) is 1.6 µM. On the same count and under the same terms, with `COC(=O)CCc1c[nH]c(/C=C2\C(=O)Nc3ccc(N)cc32)c1C` the figure was 4.7 µM; with `COC(=O)CCc1c[nH]c(/C=C2\C(=O)Nc3ccc(Cl)cc32)c1C`, 5.6 µM. On to `COC(=O)CCc1c[nH]c(/C=C2\C(=O)Nc3cccc(C)c32)c1C`, for which the 50% inhibitory concentration (IC50) was determined as 10.8 µM.

Regarding `COC(=O)CCc1c[nH]c(/C=C2\C(=O)Nc3ccccc32)c1C`, the concentration for half-maximal inhibition (IC50) was found to be 12.5 µM. Same read-out and setting: the same measure for `CCOC(=O)c1c(C)c(/C=C2\C(=O)Nc3ccccc32)n(C)c1C`: 0.97 µM; for `CCc1c(C)[nH]c(/C=C2\C(=O)Nc3ccc(N)cc32)c1C`: 1.5 µM; for `Cc1cc(C)n(C)c1/C=C1\C(=O)Nc2ccc(N)cc21`: 1.1 µM. Consider `Cc1cc(C)c(/C=C2\C(=O)Nc3cccc(C)c32)[nH]1`, for which the IC50 came to 7.3 µM. For the molecule `CCc1cc(CC)c(/C=C2\C(=O)Nc3ccc(N)cc32)[nH]1`, the half-maximal inhibitory concentration (IC50) is 5.6 µM.

For `CCc1cc(CC)c(/C=C2\C(=O)Nc3ccccc32)[nH]1`, the concentration for half-maximal inhibition (IC50) came to 8.1 µM. The same measure, in the same setting: the same measure for `CCc1cc(CC)c(/C=C2\C(=O)Nc3cccc(C)c32)[nH]1`: 17.3 µM; for `COc1ccc(/C=C2\C(=O)Nc3ccccc32)cc1O`: 2.9 µM. Same read-out and setting: with `O=C1Nc2ccc(Cl)cc2/C1=C/c1ccc(O)c(Br)c1` the figure was 5.2 µM. As to `Cc1cc(Cl)cc2c1NC(=O)/C2=C\c1cc(O)c(O)c(Br)c1`, the concentration for half-maximal inhibition (IC50) was determined as 18.5 µM. Still for that read-out and setting: with `O=C1Nc2c(Br)cc(Cl)cc2/C1=C/c1cc(O)c(O)c(Br)c1` the figure was 8.8 µM; with `CN(C)CCCOc1ccc(/C=C2\C(=O)Nc3ccccc32)cc1`, 4 µM; with `Cc1cccc2c1/C(=C/c1ccc(OCCCN(C)C)cc1)C(=O)N2`, 8 µM. On the same count and under the same terms, with `CN(C)CCCOc1ccc(/C=C2\C(=O)Nc3ccc(Cl)cc32)cc1` the figure was 11.5 µM. The same measure, in the same setting: with `CN(C)CCCOc1ccc(/C=C2\C(=O)Nc3ccc(N)cc32)cc1` the figure was 13.7 µM; with `COc1ccc(OC)c(/C=C2\C(=O)Nc3cccc(C)c32)c1`, 10.4 µM. With `COc1c(O)ccc(/C=C2\C(=O)Nc3ccc(Cl)cc32)c1[N+](=O)[O-]`, the IC50 was found to be 10.7 µM.

As to `CC(C)(C)c1cc(/C=C2\C(=O)Nc3ccc([N+](=O)[O-])cc32)cc([N+](=O)[O-])c1OCc1ccccc1`, the 50% inhibitory concentration (IC50) is 16.4 µM. Same read-out and setting: the same measure for `Cc1cccc2c1/C(=C/c1cc(C(C)C)c(OCc3ccccc3)c(C(C)C)c1)C(=O)N2`: 19.9 µM; for `CC(C)(C)c1ccc(/C=C2\C(=O)Nc3ccccc32)cc1`: 9.7 µM; for `CCc1ccc(/C=C2\C(=O)Nc3ccccc32)cc1`: 20.3 µM. Same read-out and setting: the same measure for `Cc1cc(C)c2c(c1)NC(=O)/C2=C\c1c[nH]cn1`: 4.6 µM; for `O=C1Nc2ccc(Cl)cc2/C1=C/c1c[nH]cn1`: 5.6 µM.

For the molecule `O=C1Nc2ccccc2/C1=C/c1ccc(N2CCCC2)cc1`, the IC50 turned out to be 9.9 µM.

With `O=C1Nc2ccc(Cl)cc2/C1=C/c1ccc(N2CCCC2)cc1`, the IC50 came to 12.3 µM. Same read-out and setting: with `Nc1ccc2c(c1)/C(=C/c1ccc(N3CCCC3)cc1)C(=O)N2` the figure was 18.4 µM; with `O=CN1CCN(c2ccc(/C=C3\C(=O)Nc4ccc(Cl)cc43)cc2)CC1`, 5.8 µM.

`O=CN1CCN(c2ccc(/C=C3\C(=O)Nc4ccccc43)cc2)CC1`: the half-inhibitory concentration (IC50) turned out to be 6.2 µM.
